Tested on: Rhodobacter sphaeroides 2.4.1 SodB1 [KCTC 11069BP]
Test: Antioxidant screening by growth of SodB1 mutant bacteria on chlorophyllide-added medium blocks or filter discs
Format: cell-based
Settings: sample dissolved in ethanol or dimethylsulfoxide, FIG. 5
Description: Next, an antioxidant sample and SodB1 mutant bacteria were added to these medium blocks, or otherwise chlorophyllide (0.1 to 100 mM) was added directly to filter discs to which a desired concentration of an antioxidant candidate material was then added. Thereafter, multimeric protein-expressing SodB1 mutant bacteria, i.e. Rhodobacter sphaeroides 2.4.1 SodB1 [KCTC 11069BP], were plated on a Sistrom's minimal medium [20 mM potassium dihydrogen phosphate (KH2PO4), 3.8 mM ammonium sulfate ((NH4)2SO4), 34 mM succinic acid, 0.59 mM L-glutamic acid, 0.30 mM L-aspartic acid, 8.5 mM sodium chloride, 1.05 mM nitrilotriacetic acid, 1.2 mM magnesium chloride (MgCl2.6H2O), 0.23 mM calcium chloride (CaCl2.7H2O), 25 μM ferrous sulfate (FeSO4.7H2O), 0.16 μM ammonium molybdate ((NH4)6Mo7O24.4H2O), 4.7 μM EDTA, 38 μM zinc sulfate (ZnSO4.7H2O), 9.1 μM manganese sulfate (MnSO4.H2O), 1.6 μM copper sulfate (CuSO4.5H2O), 0.85 μM cobalt (II) nitrate (Co(NO3)2.6H2O), 1.8 μM boric acid (H3BO3), 8.1 μM nicotinic acid, 1.5 μM thiamine hydrochloride, and 41 nM biotin] (Sistrom, W. R, 1962. J. Gen. Microbiol. 28: 607-616).
As a result, when there was an antioxidant activity in the antioxidant candidate material to be screened, cells grew only on the medium blocks or around filter discs and thus red bacteria were observed. […]

Compound	cell growth of SodB1 mutant bacteria / prevention of cell death (antioxidant activity)
tocopherol	partial cell growth
O=c1c(O)c(-c2ccc(O)c(O)c2)oc2cc(O)cc(O)c12 [quercetin]	partial cell growth

— patent US7892780B2, “Method for screening antioxidant using mutant bacteria and chlorophyllide, and antioxidant screened by the method” (Industry-University Cooperation Foundation Sogang University, priority 2007, dated 2011)
